Broadly, the IC50 is the midpoint of a concentration-inhibition curve. A low value points to greater potency.

Holding throughout (assay type): cell-based
Holding throughout (settings): 20 hours

One assay deals with T1, GASC1 (KDM4C) (Homo sapiens, UniProt Q9H3R0).
T1 construct: Full length; host or cells: U2OS
T1 sequence (Q9H3R0 1-1056): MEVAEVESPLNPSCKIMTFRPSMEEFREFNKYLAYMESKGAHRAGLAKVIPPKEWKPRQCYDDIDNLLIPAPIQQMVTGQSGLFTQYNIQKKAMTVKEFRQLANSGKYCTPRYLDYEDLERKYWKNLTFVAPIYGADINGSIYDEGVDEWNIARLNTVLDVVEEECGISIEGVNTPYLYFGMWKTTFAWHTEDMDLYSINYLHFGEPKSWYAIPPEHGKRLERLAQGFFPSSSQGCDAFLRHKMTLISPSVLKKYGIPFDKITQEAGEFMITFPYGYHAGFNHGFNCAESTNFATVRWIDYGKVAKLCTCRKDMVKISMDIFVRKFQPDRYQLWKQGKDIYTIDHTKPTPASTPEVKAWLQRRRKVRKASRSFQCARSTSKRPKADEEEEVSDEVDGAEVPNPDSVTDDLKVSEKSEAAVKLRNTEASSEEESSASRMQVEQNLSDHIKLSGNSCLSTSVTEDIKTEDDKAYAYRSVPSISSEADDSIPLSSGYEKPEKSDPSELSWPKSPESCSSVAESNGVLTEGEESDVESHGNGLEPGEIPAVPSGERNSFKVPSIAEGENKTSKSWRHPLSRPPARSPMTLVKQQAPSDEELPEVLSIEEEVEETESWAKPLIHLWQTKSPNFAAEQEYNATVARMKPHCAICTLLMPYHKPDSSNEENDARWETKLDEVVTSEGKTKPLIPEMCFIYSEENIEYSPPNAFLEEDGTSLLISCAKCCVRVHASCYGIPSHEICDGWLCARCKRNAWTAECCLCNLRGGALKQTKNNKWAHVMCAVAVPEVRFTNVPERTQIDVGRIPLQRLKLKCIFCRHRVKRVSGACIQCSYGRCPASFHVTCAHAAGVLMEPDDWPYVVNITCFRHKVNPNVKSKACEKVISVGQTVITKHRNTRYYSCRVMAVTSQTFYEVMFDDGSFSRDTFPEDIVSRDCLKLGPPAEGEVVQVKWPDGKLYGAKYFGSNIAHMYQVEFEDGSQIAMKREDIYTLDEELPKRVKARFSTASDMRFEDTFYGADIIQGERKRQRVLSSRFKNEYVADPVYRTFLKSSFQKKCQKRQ
Nature of the assay: Immunofluorescence assay in U2OS cells transfected with pCMVHA JMJD2C (H3K9me3 mark). The method, then:
(§1) U2OS cells were seeded 24 hours before transfection. Transfection was performed with Fugene HD transfection reagent as recommended by the manufacturer. 6 hours after transfection, the cells were harvested and seeded into multi well plates into media containing compound. The media used was DMEM containing 5% FBS and pen/strep. 20 hours after incubation of cells with compounds, the cells were washed once in PBS, harvested by fixation with formaldehyde 4% aqueous solution, and washed 2 times in PBS. Subsequently, the cells were permeabilized in PBS with 0.2% Triton X-100 for 10 min at room temperature. Blocking was performed in PBS with 0.2% Triton X-100 and 5% FBS for 45 min at room temperature. The cells were incubated with primary antibodies diluted 1 μg/ml in blocking solution over night at 4° C. The primary antibodies used in the assays were HA.11 (Covance, MMS-101P) and the antibody detecting the mark specified in the Table 6 below. After incubation with primary antibodies, the cells were washed 3 times with PBS, incubated with secondary antibodies diluted 1:1000 (Alexa fluor 594 goat anti rabbit IgG, Invitrogen, A11012; Alexa flour 488 donkey anti mouse IgG, Invitrogen, A21202) and Hoechst, 20 μg/ml (Sigma, 33342) in blocking solution, and washed again 3 times with PBS. Finally, PBS was added and high throughput imaging and analysis were performed by an IN Cell Analyzer 1000 (GE Healthcare). The robot software analyzed individual cells and divided these into HA^+ (transfected cells) and HA^− (non-transfected cells). The IC50 values in Table 7 below were based on an average measure of the staining of the mark specified in the Table 6 below in the transfected cells.

The next assay addresses T2, JMJD2A (KDM4A) (Homo sapiens, UniProt O75164).
T2 construct: Full length; host or cells: U2OS
T2 sequence (O75164 1-1064): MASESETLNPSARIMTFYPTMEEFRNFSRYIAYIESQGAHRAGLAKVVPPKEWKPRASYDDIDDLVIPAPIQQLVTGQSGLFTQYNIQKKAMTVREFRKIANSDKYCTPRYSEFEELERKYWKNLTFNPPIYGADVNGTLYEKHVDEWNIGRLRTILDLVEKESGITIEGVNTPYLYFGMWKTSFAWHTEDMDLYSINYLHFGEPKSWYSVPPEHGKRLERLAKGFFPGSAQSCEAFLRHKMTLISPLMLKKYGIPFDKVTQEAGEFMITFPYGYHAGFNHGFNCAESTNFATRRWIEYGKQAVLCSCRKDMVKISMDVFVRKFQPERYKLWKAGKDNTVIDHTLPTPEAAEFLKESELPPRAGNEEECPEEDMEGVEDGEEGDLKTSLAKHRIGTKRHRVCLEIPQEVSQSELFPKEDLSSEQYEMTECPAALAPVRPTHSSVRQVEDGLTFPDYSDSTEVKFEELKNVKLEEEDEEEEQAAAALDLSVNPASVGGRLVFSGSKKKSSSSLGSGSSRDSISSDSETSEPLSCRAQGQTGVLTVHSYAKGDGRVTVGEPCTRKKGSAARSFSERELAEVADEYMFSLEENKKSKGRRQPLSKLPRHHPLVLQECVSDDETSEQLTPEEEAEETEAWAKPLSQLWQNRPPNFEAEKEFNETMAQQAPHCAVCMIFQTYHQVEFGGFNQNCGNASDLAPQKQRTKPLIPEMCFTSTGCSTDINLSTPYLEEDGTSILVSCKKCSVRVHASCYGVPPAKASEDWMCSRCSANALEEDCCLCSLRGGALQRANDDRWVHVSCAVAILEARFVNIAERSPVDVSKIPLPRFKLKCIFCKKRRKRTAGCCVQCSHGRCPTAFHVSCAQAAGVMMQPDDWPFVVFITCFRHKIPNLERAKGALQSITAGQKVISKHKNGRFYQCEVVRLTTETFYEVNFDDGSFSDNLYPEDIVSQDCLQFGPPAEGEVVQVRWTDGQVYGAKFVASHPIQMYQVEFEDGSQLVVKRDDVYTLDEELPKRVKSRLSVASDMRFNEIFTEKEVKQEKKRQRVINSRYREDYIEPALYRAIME
Briefly: Immunofluorescence assay in U2OS cells transfected with pCMVHA JMJD2A (H3K9me3 mark). The method, then: as §1

The next assay concerns the target T3, PLU1 (KDM5B) (Homo sapiens, UniProt Q9UGL1).
T3 construct: (1-752); host or cells: U2OS
T3 sequence (Q9UGL1 1-752): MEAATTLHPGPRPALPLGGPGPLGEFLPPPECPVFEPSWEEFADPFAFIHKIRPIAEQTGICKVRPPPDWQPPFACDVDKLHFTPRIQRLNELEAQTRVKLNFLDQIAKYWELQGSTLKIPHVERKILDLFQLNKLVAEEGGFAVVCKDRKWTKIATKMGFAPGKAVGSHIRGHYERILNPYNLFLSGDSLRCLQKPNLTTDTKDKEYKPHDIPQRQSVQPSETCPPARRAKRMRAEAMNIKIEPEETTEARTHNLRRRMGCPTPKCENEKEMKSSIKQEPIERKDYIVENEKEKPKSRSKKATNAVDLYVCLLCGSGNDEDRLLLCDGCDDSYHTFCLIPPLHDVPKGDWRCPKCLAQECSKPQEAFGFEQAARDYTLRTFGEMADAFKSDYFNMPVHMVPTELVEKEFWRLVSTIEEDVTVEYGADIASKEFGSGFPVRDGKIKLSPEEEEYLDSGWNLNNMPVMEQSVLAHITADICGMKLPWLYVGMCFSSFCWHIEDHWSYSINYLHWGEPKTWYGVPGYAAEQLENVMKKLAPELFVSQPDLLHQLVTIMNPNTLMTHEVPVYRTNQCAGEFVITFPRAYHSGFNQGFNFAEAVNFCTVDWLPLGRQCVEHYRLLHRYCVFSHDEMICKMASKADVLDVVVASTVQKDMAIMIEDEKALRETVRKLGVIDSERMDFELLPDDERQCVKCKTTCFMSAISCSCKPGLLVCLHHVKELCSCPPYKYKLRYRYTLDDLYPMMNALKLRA
Nature of the assay: Immunofluorescence assay in U2OS cells transfected with pCMVHA PLU1 (H3K4me2 mark). Summed up: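 U2OS cells transiently expressing HA-tagged demethylase, exposed to compound 6 h post-transfection for 20 h in DMEM/5% FBS. Cells fixed, then immunostained for HA and the histone methyl mark and imaged by high-content analysis. IC50 from mean mark staining in HA-positive transfected cells.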

For `CCN(CCN(C)C)C(=O)CNCc1cc(C(=O)O)ccn1` [drawing 328, 2-{[({[2-(dimethylamino)ethyl](ethyl)carbamoyl}methyl)amino]methyl}pyridine-4-carboxylic acid], the IC50 was greater than 50 µM at GASC1 (KDM4C), 1 to 50 µM against JMJD2A (KDM4A) and 1 to 50 µM at PLU1 (KDM5B).
Regarding `CCOC(=O)N(C)c1ccc(COC(=O)c2ccnc(CNCCCCN(CC)CC)c2)cc1` [drawing 333, {4-[(ethoxycarbonyl)(methyl)amino]phenyl}methyl 2-({[4-(diethylamino)butyl]amino}methyl)pyridine-4-carboxylate], the IC50 at JMJD2A (KDM4A) is less than 1 µM.
On the same count and under the same terms, in the case of `CCCCCCCCCCCCCCCC(=O)OCC(COC(=O)CCCCCCCCCCCCCCC)OC(=O)c1ccnc(CNCC(=O)N(CC)CCN(C)C)c1` [drawing 334, 2-(2-{[({[2-(dimethylamino)ethyl](ethyl)carbamoyl}methyl)amino]methyl}pyridine-4-carbonyloxy)-3-(hexadecanoyloxy)propyl hexadecanoate] it was 1 to 50 µM.

The values above are taken from patent US10221139B2, “Inhibitors of histone demethylases” (Gilead Sciences, Inc., priority 2012, dated 2019).
